Experimental data: ChEMBL document CHEMBL4007403, “Identification of Triazolothiadiazoles as Potent Inhibitors of the dCTP Pyrophosphatase 1” (J Med Chem, 2017)
Converted amounts (≈) assume the structure as drawn.

Key:
[1] = Stability of the compound in biochemical assay buffer under basic mobile phase conditions by HPLC-MS analysis; assay type: physicochemical
[2] = Stability of the compound in biochemical assay buffer under mildly acidic mobile phase conditions by HPLC-MS analysis; assay type: physicochemical
[3] = Stability of the compound in DMSO measured after several months by HPLC-MS analysis; assay type: physicochemical
[4] = target: T1, dCTP pyrophosphatase 1 (Homo sapiens, UniProt Q9H773); experiment: Inhibition of recombinant human N-terminal His-tagged dCTPase 1 expressed in Escherichia coli BL21(DE3)pLysS using dCTP as substrate after 1 hr by malachite green reagent based assay
T1 sequence (Q9H773 whole entry): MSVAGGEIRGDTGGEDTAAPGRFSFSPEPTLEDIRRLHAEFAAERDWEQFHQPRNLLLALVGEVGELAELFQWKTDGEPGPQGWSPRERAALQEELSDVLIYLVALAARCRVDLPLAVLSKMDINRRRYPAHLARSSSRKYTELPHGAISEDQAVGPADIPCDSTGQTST

[5] = Half life in mouse liver microsomes up to 100 uM preincubated for 10 mins followed by NADPH addition by UPLC-MS analysis; assay type: ADME, microsome
[6] = Hepatic extraction ratio in mouse liver microsomes up to 100 uM preincubated for 10 mins followed by NADPH addition by UPLC-MS analysis; assay type: ADME, microsome; settings: read-out: ERH
[7] = Half life in human liver microsomes up to 100 uM preincubated for 10 mins followed by NADPH addition by UPLC-MS analysis; assay type: ADME, microsome
[8] = Hepatic extraction ratio in human liver microsomes up to 100 uM preincubated for 10 mins followed by NADPH addition by UPLC-MS analysis; assay type: ADME, microsome; settings: read-out: ERH
[9] = Kinetic solubility of the compound; assay type: physicochemical; settings: read-out: Kinetic_solubility

| Structure (SMILES) | Stability [1] | Stability [2] | Stability [3] | IC50 [4] [nM] | half-life [5] [min] | hepatic extraction ratio [6] | half-life [7] [min] | hepatic extraction ratio [8] | solubility kinetic [9] [µM] |
| --- | --- | --- | --- | --- | --- | --- | --- | --- | --- |
| c1ccc(-c2nn3c(-c4ccco4)nnc3s2)cc1 | Stable | Stable | Stable | 592 | – | – | – | – | – |
| C(=C\c1cccnc1)/Cc1nn2c(-c3ccco3)nnc2s1 | Stable | Stable | Stable | 453 | – | – | – | – | – |
| COc1ccc(-c2nn3c(-c4cccnc4)nnc3s2)cc1 | Stable | Stable | Stable | 2610 | – | – | – | – | – |
| COc1cccc(-c2nn3c(-c4ccncc4)nnc3s2)c1 | Stable | Stable | Stable | > 10000 | – | – | – | – | – |
| Fc1cccc(-c2nn3c(-c4ccccn4)nnc3s2)c1 | Stable | Stable | Stable | 357 | – | – | – | – | – |
| Fc1ccccc1-c1nn2c(-c3ccccn3)nnc2s1 | Stable | Stable | Stable | 670 | – | – | – | – | – |
| COc1ccccc1-c1nn2c(-c3ccccn3)nnc2s1 | Stable | Stable | Stable | 1030 | – | – | – | – | – |
| Clc1ccccc1-c1nn2c(-c3ccccn3)nnc2s1 | Stable | Stable | Stable | 440 | – | – | – | – | – |
| Cc1ccccc1-c1nn2c(-c3ccccn3)nnc2s1 | Stable | Stable | Stable | 505 to 746 | – | – | – | – | – |
| Cc1ccccc1-c1nn2c(-c3cnccn3)nnc2s1 | Stable | Stable | Stable | 691 | – | – | – | – | – |
| Fc1ccc(-c2nn3c(-c4ccccn4)nnc3s2)cc1 | Stable | Stable | Stable | 332 | – | – | – | – | – |
| c1ccc(-c2nnc3sc(-c4cc5ccccc5o4)nn23)nc1 | Stable | Stable | Stable | 401 | – | – | – | – | – |
| CCCc1nnc2sc(-c3cccc(OC)c3)nn12 | Stable | Stable | Stable | 7460 | – | – | – | – | – |
| CCCCc1nnc2sc(-c3cccc(OC)c3)nn12 | Stable | Stable | Stable | 2060 | – | – | – | – | – |
| Ic1ccccc1-c1nn2c(-c3ccccn3)nnc2s1 | Stable | Stable | Stable | 505 | – | – | – | – | – |
| CCCc1nnc2sc(-c3ccc(OC)cc3)nn12 | Stable | Stable | Stable | 6970 | – | – | – | – | – |
| c1coc(-c2nnc3sc(-c4cccs4)nn23)c1 | Stable | Stable | Stable | 704 | – | – | – | – | – |
| c1ccc(CCCCc2nn3c(-c4ccccn4)nnc3s2)cc1 | Stable | Stable | Stable | 1370 | – | – | – | – | – |

| Structure (SMILES) | Stability [1] | Stability [2] | Stability [3] | IC50 [4] [nM] | half-life [5] [min] | hepatic extraction ratio [6] | half-life [7] [min] | hepatic extraction ratio [8] | solubility kinetic [9] [µM] |
| --- | --- | --- | --- | --- | --- | --- | --- | --- | --- |
| Cc1onc(-c2cccs2)c1-c1nn2c(-c3ccco3)nnc2s1 | Stable | Stable | Stable | 1030 | – | – | – | – | – |
| Cc1ccc(-c2nn3c(-c4ccccn4)nnc3s2)cc1 | Stable | Stable | Stable | 469 | – | – | – | – | – |
| C(=C\c1cccnc1)/Cc1nn2c(-c3ccccc3)nnc2s1 | Stable | Stable | Stable | 558 | – | – | – | – | – |
| CCCCc1nnc2sc(-c3cc(C)nc4ccccc34)nn12 | Stable | Stable | Stable | 5610 | – | – | – | – | – |
| CCOc1ccc(-c2nn3c(-c4ccccn4)nnc3s2)cc1OCC | Stable | Stable | Stable | 1170 | – | – | – | – | – |
| C=CCOc1ccc(-c2nn3c(-c4ccccn4)nnc3s2)cc1 | Stable | Stable | Stable | 1210 | – | – | – | – | – |
| Fc1ccccc1-c1nnc2sc(-c3ccccc3)nn12 | Stable | Stable | Stable | 410 | – | – | – | – | – |
| CCc1cc(-c2nnc3sc(-c4ccccc4)nn23)n(C)n1 | Stable | Stable | Stable | > 10000 | – | – | – | – | – |
| COc1cccc(-c2nn3c(-c4ccccn4)nnc3s2)c1 | Stable | Stable | Stable | 1880 | – | – | – | – | – |
| Brc1ccccc1-c1nn2c(-c3ccccn3)nnc2s1 | Stable | Stable | Stable | 328 | – | – | – | – | – |
| CCOc1ccc(-c2nn3c(-c4ccccn4)nnc3s2)cc1 | Stable | Stable | Stable | 449 | – | – | – | – | – |
| c1ccc(-c2nn3c(-c4ccccn4)nnc3s2)cc1 | Stable | Stable | Stable | 619 | – | – | – | – | – |
| Brc1cccc(-c2nn3c(-c4ccccn4)nnc3s2)c1 | Stable | Stable | Stable | 602 | – | – | – | – | – |
| Cc1cccc(-c2nn3c(-c4ccccn4)nnc3s2)c1 | Stable | Stable | Stable | 449 | – | – | – | – | – |
| Clc1ccc(-c2nn3c(-c4ccccn4)nnc3s2)c(Cl)c1 | Stable | Stable | Stable | 419 | – | – | – | – | – |
| COc1cccc(-c2nnc3sc(-c4ccncc4)nn23)c1 | Stable | Stable | Stable | 1020 | – | – | – | – | – |
| CCc1noc(C)c1-c1nn2c(-c3cccs3)nnc2s1 | Stable | Stable | Stable | 346 | – | – | – | – | – |

These reach a lower IC50 [4]. Values come first.

| Stability [1] | Stability [2] | Stability [3] | IC50 [4] [nM] | half-life [5] [min] | hepatic extraction ratio [6] | half-life [7] [min] | hepatic extraction ratio [8] | solubility kinetic [9] [µM] | Structure (SMILES) |
| --- | --- | --- | --- | --- | --- | --- | --- | --- | --- |
| Stable | Stable | Stable | 204 | – | – | – | – | – | c1ccc(-c2nnc3sc(-c4cccc5ccccc45)nn23)nc1 |
| Stable | Stable | Stable | 233 | – | – | – | – | – | c1ccc(-c2nnc3sc(-c4cccnc4)nn23)nc1 |
| Stable | Stable | Stable | 208 | – | – | – | – | – | COc1ccc(-c2nn3c(-c4ccccc4F)nnc3s2)cc1 |
| Stable | Stable | Stable | 282 to 316 | – | – | – | – | – | COc1ccc(-c2nn3c(-c4ccccn4)nnc3s2)cc1 |
| Stable | Stable | Stable | 95 | – | – | – | – | – | c1ccc(-c2nnc3sc(-c4ccc5ccccc5c4)nn23)nc1 |
| Stable | Stable | Stable | 204 | – | – | – | – | – | Clc1ccc(-c2nn3c(-c4ccccn4)nnc3s2)cc1 |
| Stable | Stable | Stable | 220 | – | – | – | – | – | Clc1ccc(/C=C/Cc2nn3c(-c4ccccn4)nnc3s2)cc1 |
| Stable | Stable | Stable | 144 | – | – | – | – | – | c1coc(-c2nnc3sc(-c4csc5c4CCCC5)nn23)c1 |
| Stable | Stable | Stable | 170 | 1 | 0.99 | 6 | 0.89 | 30 (≈ 8.59 µg/mL) | c1csc(-c2nnc3sc(-c4cnccn4)nn23)c1 |
| Stable | Stable | Stable | 177 | – | – | – | – | – | c1coc(-c2nnc3sc(-c4ccc5ccccc5n4)nn23)c1 |
| Stable | Stable | Stable | 227 | – | – | – | – | – | Cc1ccc(-c2nn3c(-c4ccccn4)nnc3s2)cc1C |
| Stable | Stable | Stable | 271 | – | – | – | – | – | Clc1cccc(-c2nn3c(-c4ccccn4)nnc3s2)c1 |
| Stable | Stable | Stable | 291 | – | – | – | – | – | CN(C)c1ccc(-c2nn3c(-c4ccccn4)nnc3s2)cc1 |
| Stable | Stable | Stable | 277 | – | – | – | – | – | CN(C)c1cccc(-c2nn3c(-c4ccccn4)nnc3s2)c1 |
| Stable | Stable | Stable | 164 | – | – | – | – | – | Brc1ccc(-c2nn3c(-c4ccccn4)nnc3s2)cc1 |
| Stable | Stable | Stable | 276 | – | – | – | – | – | COc1cc(OC)cc(-c2nn3c(-c4ccccn4)nnc3s2)c1 |
| Stable | Stable | Stable | 314 | – | – | – | – | – | Cc1cc(-c2nn3c(-c4ccccn4)nnc3s2)c2ccccc2n1 |
